How the values were obtained:
Plasmodium falciparum [1] = assay: NOVARTIS: Inhibition of Plasmodium falciparum W2 (drug-resistant) proliferation in erythrocyte-based infection assay; format: functional, organism-based; details: Plasmodium falciparum, W2; read-out: EC50
[2] = NOVARTIS: Cytotoxicity against human hepatocellular carcinoma cell line (Huh7); format: toxicity, cell-based, Huh-7; details: Huh7 cells (hepatocellular carcinoma cell line)
Plasmodium falciparum [3] = assay: NOVARTIS: Inhibition of Plasmodium falciparum 3D7 (drug-susceptible) proliferation in erythrocyte-based infection assay; format: functional, organism-based; details: Plasmodium falciparum, 3D7

Compound	EC50 (Plasmodium falciparum [1])	CC50 [2]	EC50 (Plasmodium falciparum [3])
O=C1C2C(C(=O)N1c1cccc3ccccc13)C1C=CC2C12CC2 (centres undefined)	1090 nM	> 100000 nM	6590 nM
CC(/C=C/C(=O)NO)=C\[C@@H](C)C(=O)c1ccc(N(C)C)cc1 [TRICHOSTATIN]	171 nM	1590 nM	200 nM
C[N+]1(CCOC(=O)CCC(=O)OCC[N+]2(C)CCCCCC2)CCCCCC1	> 1250 nM	> 10000 nM	> 479 nM
Oc1ccccc1-c1nc2ncccn2c1Nc1cccc(C(F)(F)F)c1	1020 nM	> 100000 nM	2120 nM
CCCCNC(=O)c1ccc2c(c1)N=C(CC(C)c1ccccc1)N(C1CCCCC1)C2 (centres undefined)	8210 nM	48700 nM	1450 nM
CO[C@H]1[C@H](C)[C@@H]([C@H]2CC[C@H]([C@@H]3CC[C@H]([C@@]4(C)O[C@]5(O[C@H](C[C@@H]6O[C@](O)([C@@H](C)C(=O)O)[C@@H](C)[C@H](O[C@H]7CC[C@H](OC)[C@@H](C)O7)[C@@]6(C)OC)C[C@@H](OC)[C@H]5C)[C@H](C)[C@H]4OC)O3)O2)O[C@](C)(O)[C@@H]1C	1.93 nM	2420 nM	13.3 nM
COc1ccc2c(c1)-c1c(ssc1=S)C(C)(C)N2C(=O)c1cccc(Cl)c1	> 1250 nM	> 100000 nM	1090 nM
CCc1nc2nc(C)cc(Nc3ccc4c(c3)OCCO4)n2n1	219 nM	> 100000 nM	360 nM
Cc1ccc(CC(=O)Nc2ccc(I)cc2)cc1	> 11200 nM	> 100000 nM	> 11200 nM
CCCn1c(SCCNC(=O)NCC)nc(-c2ccccc2)c1-c1ccccc1	> 1030 nM	> 10000 nM	> 1400 nM
COc1cccc(C=NNC(=O)c2ccccc2O)c1O	969 nM	6640 nM	5380 nM
CCCC[n+]1c(-c2ccccc2)cc(-c2ccccc2)cc1-c1ccccc1	467 nM	12900 nM	824 nM
Cc1nc(Oc2ccc3ccc(=O)oc3c2)c2c3c(sc2n1)CCCCC3	> 1250 nM	> 10000 nM	2300 nM
CN1CCCC(CNC(=O)c2cnn(-c3ncc4c(n3)-c3ccccc3SC4)c2C2CC2)C1 (centres undefined)	1100 nM	> 10000 nM	976 nM
CCOC(=O)C1=C(CC)NC2=C(C(=O)CC(C)(C)C2)C1c1ccc(Br)cc1 (centres undefined)	44.1 nM	> 100000 nM	408 nM
Cc1ccc(Cn2c(C)c3cnn(CC(=O)O)c(=O)c3c2C)cc1	928 nM	> 100000 nM	> 9010 nM
CN(c1ccc(Br)cc1)S(=O)(=O)c1ccc2[nH]cc(C(=O)N3CCN(c4ccccc4)CC3)c(=O)c2c1	< 2.83 nM	> 10000 nM	> 1250 nM

Compound	EC50 (Plasmodium falciparum [1])	CC50 [2]	EC50 (Plasmodium falciparum [3])
O=C(Nc1ccc(NC(=O)Nc2ccc(C3=NCCN3)cc2)cc1)Nc1ccc(C2=NCCN2)cc1	276 nM	> 10000 nM	305 nM
CCCCCCCCC(=O)N(C)CCCNc1ccnc2cc(Cl)ccc12	196 nM	> 10700 nM	321 nM
CSc1nc(N)c2c3c(sc2n1)CCCC3	> 253 nM	> 10000 nM	> 1250 nM
N=c1c2c(n(Cc3ccc(Cl)c(Cl)c3)c3c1CCC3)CCCC2	506 nM	> 10000 nM	503 nM
O=C(/C=C/Nc1ccccc1NS(=O)(=O)c1ccc([N+](=O)[O-])cc1)c1ccccc1	419 nM	> 10000 nM	> 1250 nM
Fc1ccc(CSc2nc3cccnc3[nH]2)cc1	4800 nM	> 100000 nM	3620 nM
CCOC(=O)C1(CC2CCCCO2)CCN(C(=O)Nc2cccc(SC)c2)CC1 (centres undefined)	4530 nM	> 100000 nM	> 12500 nM
O=C(NCCc1ccc(Cl)cc1)C1CCCN(c2nnc(N3CCCC3=O)s2)C1 (centres undefined)	3890 nM	> 100000 nM	> 12500 nM
O=C(CCC1CCCC1)NCCCCNc1ccnc2cc(Cl)ccc12	175 nM	2270 nM	486 nM
COc1ccc(CCN2CCC(NCc3cccc(N(C)C)c3)CC2)cc1	1060 nM	> 10000 nM	806 nM
O=c1oc(-c2ccccc2F)nc2sc3c(c12)CCCC3	1570 nM	> 100000 nM	> 12500 nM
Cn1c2c([n+](C)c1CCl)C(=O)c1ccccc1C2=O	3.55 nM	> 10000 nM	3.1 nM
COCCOC(=O)C1=C(C)NC2=C(C(=O)CCC2)C1c1ccc(OC)c(OC)c1OC (centres undefined)	870 nM	> 100000 nM	> 6970 nM
COc1ccc([N+](=O)[O-])cc1C=NNc1nc(Nc2ccc([N+](=O)[O-])cc2)nc(N2CCN(C)CC2)n1	388 nM	30700 nM	859 nM
COc1ccc(/C=C/c2ccc3ccccc3[n+]2C)cc1OC	867 nM	> 10000 nM	872 nM
CC(c1nc2ccccc2c(=O)n1-c1ccc(Br)cc1)N1CCN(S(=O)(=O)c2ccc3ccccc3c2)C(C)C1 (centres undefined)	434 nM	> 10000 nM	> 1250 nM

From ChEMBL document CHEMBL1156829 (Proc Natl Acad Sci U S A, 2008)
